Measurements published in PubChem BioAssay AID2060331 (Molecular Pharmacology Branch, DTP, NCI, 2025).

Tested on: Hs578T multi-cell spheroids, viability
Test: Anticancer human tumor Hs578T cell line growth inhibition [IpAb];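 note: drug exposure lasted 7 days before readout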
Details: for IC50: curve of first compound; for viability, T/C: stronger effect = lower value
How it was run: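 Spheroids of 60% malignant cells, 25% HUVEC and 15% MSC were exposed to targeted agents combined with ipatasertib or abemaciclib. Doses started at or near clinical Cmax (10 microM when unknown) and fell in half-log steps.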

[1] = second compound 0.01 µM, first compound 0.0316 µM
[2] = second compound 0.01 µM, first compound 0.1 µM
[3] = second compound 0.0316 µM, first compound 0.0316 µM
[4] = second compound 0.0316 µM, first compound 0.1 µM
[5] = second compound 0.1 µM, first compound 0.0316 µM
[6] = second compound 0.1 µM, first compound 0.1 µM
[7] = second compound 0.316 µM, first compound 0.0316 µM
[8] = second compound 0.316 µM, first compound 0.1 µM
[9] = second compound 1 µM, first compound 0.0316 µM
[10] = second compound 1 µM, first compound 0.1 µM

SMILES: Cn1nccc1Nc1nccc(-c2ccn(C(CO)c3ccc(Cl)c(F)c3)c(=O)c2)n1 (stereo not given) + CCN1CCN(Cc2ccc(Nc3ncc(F)c(-c4cc(F)c5nc(C)n(C(C)C)c5c4)n3)nc2)CC1
- IC50 (second compound 0.01 µM): 5.69 µM
- IC50 (second compound 0.0316 µM): 4.08 µM
- IC50 (second compound 0.1 µM): 3.49 µM
- IC50 (second compound 0.316 µM): 6.16 µM
- IC50 (second compound 1 µM): 2.06 µM
- viability, T/C [1]: 100%
- viability, T/C [2]: 109%
- viability, T/C (second compound 0.01 µM, first compound 0.316 µM): 110%
- viability, T/C (second compound 0.01 µM, first compound 1 µM): 88.8%
- viability, T/C (second compound 0.01 µM, first compound 3.16 µM): 64.1%
- viability, T/C (second compound 0.01 µM, first compound 10 µM): 37.3%
- viability, T/C [3]: 92.2%
- viability, T/C [4]: 99.8%
- viability, T/C (second compound 0.0316 µM, first compound 0.316 µM): 96.3%
- viability, T/C (second compound 0.0316 µM, first compound 1 µM): 73.5%
- viability, T/C (second compound 0.0316 µM, first compound 3.16 µM): 61.6%
- viability, T/C (second compound 0.0316 µM, first compound 10 µM): 18.1%
- viability, T/C [5]: 79.2%
- viability, T/C [6]: 86.7%
- viability, T/C (second compound 0.1 µM, first compound 0.316 µM): 88.6%
- viability, T/C (second compound 0.1 µM, first compound 1 µM): 59.6%
- viability, T/C (second compound 0.1 µM, first compound 3.16 µM): 56.5%
- viability, T/C (second compound 0.1 µM, first compound 10 µM): 27.6%
- viability, T/C [7]: 79%
- viability, T/C [8]: 86.3%
- viability, T/C (second compound 0.316 µM, first compound 0.316 µM): 86%
- viability, T/C (second compound 0.316 µM, first compound 1 µM): 71.3%
- viability, T/C (second compound 0.316 µM, first compound 3.16 µM): 63.8%
- viability, T/C (second compound 0.316 µM, first compound 10 µM): 40.2%
- viability, T/C [9]: 81.8%
- viability, T/C [10]: 79.7%
- viability, T/C (second compound 1 µM, first compound 0.316 µM): 85.5%
- viability, T/C (second compound 1 µM, first compound 1 µM): 58.8%
- viability, T/C (second compound 1 µM, first compound 3.16 µM): 50.4%
- viability, T/C (second compound 1 µM, first compound 10 µM): 39.2%

SMILES: Cn1ncnc1[C@H]1c2n[nH]c(=O)c3cc(F)cc(c23)N[C@@H]1c1ccc(F)cc1 + CCN1CCN(Cc2ccc(Nc3ncc(F)c(-c4cc(F)c5nc(C)n(C(C)C)c5c4)n3)nc2)CC1
- IC50 (second compound 0.01 µM): > 0.1 µM
- IC50 (second compound 0.0316 µM): > 0.1 µM
- IC50 (second compound 0.1 µM): > 0.1 µM
- IC50 (second compound 0.316 µM): > 0.1 µM
- IC50 (second compound 1 µM): > 0.1 µM
- viability, T/C (second compound 0.01 µM, first compound 0.000316 µM): 101%
- viability, T/C (second compound 0.01 µM, first compound 0.001 µM): 100%
- viability, T/C (second compound 0.01 µM, first compound 0.00316 µM): 95.2%
- viability, T/C (second compound 0.01 µM, first compound 0.01 µM): 88.1%
- viability, T/C [1]: 93.4%
- viability, T/C [2]: 88.4%
- viability, T/C (second compound 0.0316 µM, first compound 0.000316 µM): 99.3%
- viability, T/C (second compound 0.0316 µM, first compound 0.001 µM): 94.3%
- viability, T/C (second compound 0.0316 µM, first compound 0.00316 µM): 91.5%
- viability, T/C (second compound 0.0316 µM, first compound 0.01 µM): 93%
- viability, T/C [3]: 87.3%
- viability, T/C [4]: 84.8%
- viability, T/C (second compound 0.1 µM, first compound 0.000316 µM): 84.9%
- viability, T/C (second compound 0.1 µM, first compound 0.001 µM): 87.8%
- viability, T/C (second compound 0.1 µM, first compound 0.00316 µM): 86.8%
- viability, T/C (second compound 0.1 µM, first compound 0.01 µM): 81.8%
- viability, T/C [5]: 85.5%
- viability, T/C [6]: 85.7%
- viability, T/C (second compound 0.316 µM, first compound 0.000316 µM): 89.8%
- viability, T/C (second compound 0.316 µM, first compound 0.001 µM): 88.2%
- viability, T/C (second compound 0.316 µM, first compound 0.00316 µM): 91.8%
- viability, T/C (second compound 0.316 µM, first compound 0.01 µM): 86.7%
- viability, T/C [7]: 84.6%
- viability, T/C [8]: 85.3%
- viability, T/C (second compound 1 µM, first compound 0.000316 µM): 106%
- viability, T/C (second compound 1 µM, first compound 0.001 µM): 102%
- viability, T/C (second compound 1 µM, first compound 0.00316 µM): 104%
- viability, T/C (second compound 1 µM, first compound 0.01 µM): 102%
- viability, T/C [9]: 102%
- viability, T/C [10]: 94.7%
